The values that follow come from patent US20240228659A1, “NEW METHOD TO IMPROVE NK CELLS CYTOTOXICITY” (INSERM (INSTITUT NATIONAL DE LA SANTÉ ET DE LA RECHERCHE …, priority 2021, published 2024).

What all share (assay type): in vivo, mouse
Assay [1] relates to CD45+NKp46+CD3− NK cells. The experiment in a line: tumor NK cell infiltration, flow cytometry. Conditions: FIG. 3B; PBS control 0.88±0.2%. From the text:
FIG. 3. 13-cis-Retinoic acid combined with mAb 8B6 increases PD-1+NK cell tumor infiltration. (A) Dot plots histograms showing the gating strategy used for flow cytometric identification of CD45+NKP46+CD3− NK cells in tumor cells. (B) Fold increase of total count of NK cells in tumor cells were achieved by flow cytometry of cells gated, as indicated. […] (C) Percentage of PD-1+NK cells in tumor cells from the indicated group.
Liver metastasis were dissociated with the mouse tumor dissociation kit and the gentle MACS dissociator (Miltenyi) according to the manufacturer's instructions. Single cell suspensions were obtained by passing through a 70 μm pore-size cell MACS SmartStrainer (Miltenyi). […]
(§1) For flow cytometry analysis, cells were first incubated with a mAb specific for mouse CD16/CD32 to prevent nonspecific binding of primary antibodies against FcγR, and then, were labeled with specific conjugated mAbs. […] Quantification of total cell numbers by flow cytometry was performed done using fluorescent beads (C36950, Thermo Fisher, Waltham, MA, USA). Flow cytometric analysis were performed using an BD FACSCanto II (BD Bioscience) and data were analyzed using FlowJo software (Flowjo LLC, Oregon, OR, USA). The fold increase of tumor NK cell infiltration was calculated by dividing the number of NK cell infiltrated of each condition by the mean of the number of NK cell.

Assay [2] concerns NXS2 cells. The experiment in a line: murine NXS2 neuroblastoma experimental liver metastasis model in A/J mice. Conditions: FIG. 1B; 8 mice/group; day 27 after i.v. NXS2 inoculation; 8B6 25 μg i.v. twice weekly x3 weeks; 13-cis-RA 10 mg/kg per os. Here is the method:
FIG. 1. 13-cis-Retinoic acid enhances anti-neuroblastoma activity of anti-O-acetylated GD2 ganglioside in vivo. (A) Mice (8 animal/group) were inoculated with 2.5×10^5 NXS2 cells by i.v. injections on day 0. Antibody 8B6 treatment was performed on days 3, 7, 10, 14, 17, and 21 (cumulative dose=150 μg). 13-cis-retinoic acid treatment was given at 10 mg/kg, per os, five times weekly, day 17 to 21. Mice were euthanized 27 days post-tumor cell inoculation. (B) Anti-tumor efficacy was evaluated by determining the number of liver metastasis. Mean liver metastasis number±SEM of each treatment group, as depicted (** p<0.01; Mann-Whitney test). (C) The mice body weight was recorded for each treatment group, as indicated. Mean weight (mean±SEM, n=8) of mice on day 0 was defined as 100% weight. Weight in each group remained stable for the period of the treatment.
FIG. 4. […] (B) Anti-tumor efficacy was evaluated by determining the liver metastasis on fresh specimen. […] (C) The mice body weight was recorded for each treatment group, as indicated. […]
The anti-neuroblastoma efficacy of mAb 8B6 and chemotherapeutic treatments was determined in the murine NXS2 neuroblastoma experimental liver metastasis model in A/J mice, previously described (28). […] Mice were euthanized on day 27 post-tumor challenge, and anti-tumor efficacy was evaluated by determining the number of liver metastasis.

In assay [3] the test system is PD-L1. The assay is described as follows: PD-L1 tumor cell surface expression, flow cytometry of dissociated liver metastasis. Particulars: FIG. 2B; residual liver metastasis; untreated mice 31.3±7.19%. Here is the method:
FIG. 2. Effect of retinoic acid alone or in combination with 8B6 therapy on O-acetyl-GD2 and PD-L1 expression in vivo. Tumor cells harvested from the indicated group were stained with either OAcGD2-specific mAb (A) or PD-L1-specific mAb (B). (A) Flow cytometry analysis was performed with single cell suspension obtained from the liver metastasis harvested from mice in FIG. 1 to assess the OAcGD2 expression, as indicated. […] The level of OAcGD2 expression remains stable after treatments (ns, not significant; p>0.5). (B) Single cell suspension from (A) were also tested for PD-L1 tumor cell surface expression, as indicated. The left panel indicates the percentage of PD-L1 positive tumor cells. […]
as §1

As to `CC1=C(/C=C/C(C)=C/C=C/C(C)=C\C(=O)O)C(C)(C)CCC1` [13-cis-RA, 13-cis-retinoic acid], the “intratumoral CD45+NKp46+CD3− NK cells” value in assay [1] was found to be 2.49±0.29%. In addition, in assay [2], the “number of liver metastasis (mean±SEM)” value came out at 14.40±0.98. Further, the “percentage of PD-L1+ tumor cells” value in assay [3] is recorded as 39.45±9.76%.
